Reference: US6706747B2, “Conformationally rigid bicyclic and adamantane derivatives useful as α2-adrenergic blocking agents” (Allergan, Inc., priority 1994, dated 2004)

How the values were obtained:
[1] = target: α1; assay: Radioligand binding, [3H]prazosin, human cerebral cortex (HCC) membranes; conditions: 22° C., 30 minutes
Protocol: (§1) Tissue preparation: Membrane suspensions were prepared from human cerebral cortex (HCC) obtained from the UCI Organ and Tissue Bank and rat kidney cortex (RKC). Briefly, tissues (1 g) were homogenized in 25 ml of iced-cold 5 mM tris, pH 7.4 with a Polytron homogenizer for 30 secs at setting# 7, and centrifuged for. 10-12 minutes at 300×g at 4° C. The supernatant was filtered: through 2 layers of gauze and diluted 1:2 with 50 mM Tris-HCI buffer, pH 7.4, then centrifuged at 49,000×g for 20 minutes. The pellet fraction was washed 3 times (resuspended in Tris-HCl buffer and centrifuged for 20 minutes at 49,000×g). The pellet was then stored at −80° C. until the binding assay.
Binding studies: The radioligands [^3H]rauwolscine (specific activity 80 Ci/mmol) and [^3H]prazosin (specific activity 76 Ci/mmol) were obtained from New England Nuclear, Boston, Mass. Frozen membrane pellet was resuspended in 25 mM glycine/glycine, pH 7.4 and incubated with radioligand under the following conditions: CHO—C10, CHO—RNG, HT-29-[^3H]rauwolscine, 22° C., 30 minutes; RKC-[^3H]rauwolscine, 0° C., 120 minutes; and, HCC-[^3H]prazosin, 22° C., 30 minutes in a final volume of 500 μl. At the end of the incubation period, the samples were filtered through glass fiber filters (Whatman GF/B) in a 96 well cell harvester and rapidly washed four times with 4 ml of ice-cold 50 mM, Tris-HCl buffer. The filters were then oven dried and transferred to scintillation vials containing 5 ml of Beckman's Ready Protein® scintillation cocktail for counting. […] Protein concentrations were determined with a protein assay kit from Bio Rad. Binding isotherms, equilibrium dissociation and affinity constants were analyzed and determined by the non-linear least squares curve fitting programs AccuFit Competition/Saturation by Beckman.
Frozen membrane pellet was resuspended either 50 mM tris, 2 mM EGTA, 1 mM MgCl2, pH7.5 (RbKC, RbICB-[^3H]brimonidine); 50 mM tris, 0.5 mM EDTA, 5 mM NaCl, pH 7.7 (RbICB-[^3H]rauwolscine); 25 mM glycine/glycine, pH 7.4 (RtKC, CHO—C10, CH—RNG, HT-29, HCC) or 50 mM tris, 0.1 mM MnCl2, pH7.7 (RtCC). Membrane protein homogenate (75-200 μg) was incubated with radioligand under the following conditions: RbKC and RbICB-[^3H]rauwolscine, 22° C., 45 minutes; RtCC and RbICB-[^3H]brimondine, 22° C., 90 minutes; CHO—C10, CHO—RNG and HT-29-[^3H]rauwolscine, 22° C., 30 minutes; HCC—[^3H]prazosin, 22° C., 30 minutes; and, in a final volume of 250 or 500 μl. At the end of the incubation period, the samples were filtered through glass fiber filters (Whatman GF/B) in a 24 or 96 well cell harvester and rapidly washed four times with 4 mls of iced-cold 50 mM Tris-HCl buffer. The filters were then oven dried and transferred to scintillation vials containing 10 mls of, Beckman's Ready Protein® scintillation cocktail for counting. […] Protein concentrations were determined with a protein assay kit from Bio Rad. Binding isotherms, equilibrium dissociation and affinity constants were analyzed and determined by the non-linear least squares curve fitting programs EBDA (BioSoft) or AccuFit Competition/Saturation by Beckman.
The radioligands [^3H]rauwolscine (specific activity 80 Ci/mmol) and [^3H]prazosin (specific activity 76 Ci/mmol) were obtained from New England Nuclear, Boston, Mass. Frozen membrane pellet was resuspended in 25 mM glycine/glycine, pH 7.4 and incubated with radioligand under the following conditions: CHO—C10, CHO—RNG-[^3H]rauwolscine, 22° C., 30 minutes; and, HCC—[^3H]prazosin, 22° C., 30 minutes in a final volume of 500 ul.

[2] = target: T1, Rat Kidney Cortex (α2AB) (Rattus norvegicus, UniProt P19328); assay: Radioligand binding, [3H]rauwolscine, rat kidney cortex (RKC) membranes; conditions: values marked †: rat kidney cortex, 0° C., 120 minutes, read-out: Ki (nM) α2B (RKC)†
T1 construct: Membrane suspensions were prepared from human cerebral cortex (HCC) obtained from the UCI Organ and Tissue Bank and rat kidney cortex (RKC); from tissue; host or cells: rat kidney cortex
T1 sequence (P19328 1-453): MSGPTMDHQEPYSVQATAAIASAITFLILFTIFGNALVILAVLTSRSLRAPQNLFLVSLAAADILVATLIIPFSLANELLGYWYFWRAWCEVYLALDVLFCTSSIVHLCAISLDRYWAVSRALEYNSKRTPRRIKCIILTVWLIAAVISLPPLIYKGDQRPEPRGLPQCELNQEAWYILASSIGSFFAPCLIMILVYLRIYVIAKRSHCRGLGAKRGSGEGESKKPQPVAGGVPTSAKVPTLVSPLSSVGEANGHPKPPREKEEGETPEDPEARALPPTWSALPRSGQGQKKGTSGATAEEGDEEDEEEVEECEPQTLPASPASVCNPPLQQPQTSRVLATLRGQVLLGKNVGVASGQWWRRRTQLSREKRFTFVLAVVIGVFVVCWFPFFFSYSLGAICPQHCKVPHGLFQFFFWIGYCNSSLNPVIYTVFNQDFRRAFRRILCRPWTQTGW
Protocol: as §1
Binding studies: The radioligands [^3H]rauwolscine (specific activity 80 Ci/mmol) and [^3H]prazosin (specific activity 76 Ci/mmol) were obtained from New England Nuclear, Boston, Mass. Frozen membrane pellet was resuspended in 25 mM glycine/glycine, pH 7.4 and incubated with radioligand under the following conditions: CHO—C10, CHO—RNG, HT-29-[^3H]rauwolscine, 22° C., 30 minutes; RKC-[^3H]rauwolscine, 0° C., 120 minutes; and, HCC-[^3H]prazosin, 22° C., 30 minutes in a final volume of 500 μl. At the end of the incubation period, the samples were filtered through glass fiber filters (Whatman GF/B) in a 96 well cell harvester and rapidly washed four times with 4 ml of ice-cold 50 mM, Tris-HCl buffer. The filters were then oven dried and transferred to scintillation vials containing 5 ml of Beckman's Ready Protein® scintillation cocktail for counting. Specific binding defined by 10 μM phentolamine for competition studies were as follows: 0.3 nM [^3H]rauwolscine—CHO—C10 99%; 0.4 nM[^3H]rauwolscine —CHO—RNG 99%; 0.7;nM [^3H]rauwolscine—HT-29 90%; 1 nm [^3]rauwolscine—RKC 92%, and 0.3 nM [^3H]prazosin—HCC 87%. Protein concentrations were determined with a protein assay kit from Bio Rad. Binding isotherms, equilibrium dissociation and affinity constants were analyzed and determined by the non-linear least squares curve fitting programs AccuFit Competition/Saturation by Beckman.

| Structure (SMILES) | Ki [1] [nM] | Ki [2] [nM] |
| --- | --- | --- |
| C1CCC(C2C3CCC(C3)C2NC2=NCCN2)CC1 (stereo not shown) | 17200 | 5100 |
| CCCCNC1=NCCO1 | > 100000 | 317 |
| CC(C)C1C2CCC(C2)C1NC1=NCCO1 (stereo not shown) | > 10000 | 58 |
| CCCCC1C2CCC(C2)C1NC1=NCCO1 (stereo not shown) | 5820 | 59 |
| CCCCC1C2CCC(C2)C1NC1=NCCS1 (stereo not shown) | 42000 | 167 |
